According to patent publication US9956228B2, “Method of treating acute myeloid leukemia and/or acute lymphoblastic leukemia using thienotriazolodiazepine compounds” (ONCOETHIX GMBH, priority 2014, dated 2018):

Columns and labels:
[1] = target: T1, HDAC8 (Homo sapiens, UniProt Q9BY41); conditions: cited from earlier work
T1 sequence (Q9BY41 1-377): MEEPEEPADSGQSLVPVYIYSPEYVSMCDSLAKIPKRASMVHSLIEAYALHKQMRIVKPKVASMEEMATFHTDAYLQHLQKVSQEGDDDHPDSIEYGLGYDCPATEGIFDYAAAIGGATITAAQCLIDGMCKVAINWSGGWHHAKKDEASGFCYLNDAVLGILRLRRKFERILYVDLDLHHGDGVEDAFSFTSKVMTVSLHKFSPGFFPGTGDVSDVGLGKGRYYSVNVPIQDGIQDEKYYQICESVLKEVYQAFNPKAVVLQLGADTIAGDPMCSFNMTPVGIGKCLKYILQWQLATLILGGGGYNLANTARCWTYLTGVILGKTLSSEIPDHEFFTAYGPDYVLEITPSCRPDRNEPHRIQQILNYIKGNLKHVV

[2] = system: CMYC; experiment: CMYC modulation (Western blot, qRT-PCR) in sensitive cell lines HL60 and Jurkat; format: cell-based, human; conditions: 500 nM
Description: (§1) Five established human cell lines from acute and chronic acute myeloid leukemia (HL-60, U937, K562) and acute lymphoblastic leukemia (Jurkat, MOLT-3) were used. […] For cellular PK studies, cells were seeded at 2·10^6 cells/ml and exposed to 500 nM compound 1-1 for 0, 5, 15, 30, 60, 120 and 360 minutes. At each time point, compound 1-1 extracellular and intracellular concentrations were analyzed in cell supernatant and pellets respectively, using an Ultra Performance Liquid Chromatography with tandem Mass Spectrometry (concentration range 1-250 ng/mL). Experiments were performed in quadruplicate. In addition, in cell pellets protein modulation was analyzed by Western blot using commercial antibodies and qRT-PCR was performed using Fast SYBR Green on a StepOnePlus RT-PCR System.

[3] = system: HL60, U937 and Jurkat; experiment: MTT assay after 72 hours, sensitive cell lines; format: cell-based; conditions: Homo sapiens, 72 h exposure
Description: (§2) Protein was analyzed by Western blot and qRT-PCR was performed with Fast SYBR Green on a StepOnePlus Real-Time PCR System. […] Combination Index (CI) was determined using Chou & Talalay analysis; CI<1 reflects synergy, CI=1 additivity and CI>1 reflects antagonism.
(§3) Four established human cell lines derived from acute (HL60, U937) or chronic (K562) myeloid leukemia cells, and acute lymphoblastic leukemia cells (Jurkat) were treated with increasing doses of compound (1-1). MTT assays were performed after 72 hours exposure. GI50 and Emax values were calculated with the equation for sigmoidal dose response using Prism 5.00 and cell lines were classified as sensitive or resistant.
(§4) Five established human cell lines from acute and chronic acute myeloid leukemia (HL-60, U937, K562) and acute lymphoblastic leukemia (Jurkat, MOLT-3) were used. […] At each time point, compound 1-1 extracellular and intracellular concentrations were analyzed in cell supernatant and pellets respectively, using an Ultra Performance Liquid Chromatography with tandem Mass Spectrometry (concentration range 1-250 ng/mL). […] In addition, in cell pellets protein modulation was analyzed by Western blot using commercial antibodies and qRT-PCR was performed using Fast SYBR Green on a StepOnePlus RT-PCR System.

[4] = system: HL-60, U937, K562, Jurkat, MOLT-3; experiment: cellular PK: extracellular and intracellular concentrations by UPLC-MS/MS; format: in vitro ADME, human; conditions: 500 nM
Description: as §1

[5] = phase Ib dose-finding study, population pharmacokinetics; format: in vivo, human
Description: An oncology phase Ib trial of compound (1-1) was conducted by the inventors with the primary objective of investigating escalation of the dose of compound (1-1) administered to patients with acute leukemia or other hematologic malignancies. The study enrolled patients with acute leukemia or other hematologic malignancies. The patients received several active dose levels of compound (1-1) ranging from 10 mg to 160 mg according to different dosing schedules. Blood samples from 7 time points were collected from each patient over 24 hours post-administration on Day 1 for leukemia patients (“complete PK”) and 4 blood samples were collected from each patient over 8 hours post-administration for patients with other hematologic malignancies (“limited PK”). compound (1-1) plasma concentrations were measured on the basis of the blood samples using validated ultra performance liquid chromatography with tandem mass spectrometry detection with a concentration range 1-250 ng/mL. Analyses and population pharmacokinetics (PPK) modeling were performed with the nonlinear mixed effect modeling software program Monolix version 4.3. Pharmacokinetic Parameters, including absorption constant (Ka); apparent distribution volume (V/F), apparent clearance (CL/F) and lean body mass (LBM; calculated calculated considering patient sex, weight and height) were calculated.
85 patients enrolled in the phase Ib trial of compound (1-1) and were treated from January 2013 to August 2014. The patients were randomized to […]: 10 mg, 20 mg, 40 mg, 80 mg, 120 mg and 160 mg once a day dosing (QD); and 40 mg twice a day dosing (BID). Among them, 81 patients with 630 plasma concentrations (607+23 BLQ) were evaluable for PK assessment. A 1-compartment open model adequately described the total compound (1-1) concentration-time curve. […] In the PPK study, the best simulation model was obtained when LBM was considered in the analysis. A correlation between CL/F and V/F was also observed for compound (1-1).

[6] = system: other cell lines (K-562, NALM-1, CCRF-CEM, MOLT-3/-4); experiment: MTT assay after 72 hours, other cell lines; format: cell-based; conditions: Homo sapiens, 72 h exposure
Description: as §2, §3, §4

[7] = system: CMYC; experiment: CMYC modulation (Western blot, qRT-PCR) in resistant cell line K562; format: cell-based, human; conditions: K562, 500 nM
Description: as §1

[8] = sensitive and resistant leukemic cell lines
[9] = patients, PPK 1-compartment model

SMILES	IC50 [1]	CMYC protein and mRNA levels [2]	GI50 [3]	intracellular concentration, mean [4, 8]	intracellular concentration, range [4, 8]	time to cellular uptake [4, 8]	extracellular levels ([4]; stable up to 6 h of incubation)	half-life ([5]; human, plasma, oral, all patients, read-out: mean elimination half-life (converted))	Tmax ([5]; human, plasma, oral, patients)	absorption constant Ka ([5]; patients, 10-160 mg oral, PPK 1-compartment model)	apparent clearance CL/F [5, 9]	apparent distribution volume V/F [5, 9]	GI50 [6]	exposure time after which CMYC mRNA levels downregulation was observed [7]
Cc1cc(Cl)ccc1OCCCC(=O)NO [Droxinostat, 4-(4-Chloro-2-methylphenoxy)-N-hydroxybutanamide]	1460 nM	–	–	–	–	–	–	–	–	–	–	–	–	–
Cc1sc2c(c1C)C(c1ccc(Cl)cc1)=N[C@@H](CC(=O)Nc1ccc(O)cc1)c1nnc(C)n1-2 [Compound (1-1), 2-[(6S)-4-(4-chlorophenyl)-2,3,9-trimethyl-6H-thienol[3,2-f]-[1,2,4]triazolo[4,3-a][1,4]diazepin-6-yl]-N-(4-hydroxyphenyl)acetamide dihydrate]	–	rapid downregulation	230 to 384 nM	~15 ng/106 cells	3-23 ng·mL-1/106 cells	< 5 min	~200 ng/mL	348 min	1 to 4 h	0.74 h⁻¹	8.45 L/h	71.7 L	≥ 6 µM	2 h
